Assay results from patent EP0908457B1, “3-(1,2-benzisothiazol- and isoxazol-5-Y1)-2,4(1H,3H)-pyrimidinedione or thione and 3-(1,2-benzisothiazol- and isoxazol-5-y1)-4(3H)-pyrimidinone or thione herbicidal agents” (BASF AKTIENGESELLSCHAFT, priority 1997, dated 1999).

Experiments:
Sagittaria pygmaea, L. = assay: Preemergence weed control under flooded paddy conditions, SAGPY (Arrowhead (Pygmaea)); assay type: in vivo; settings: flooded paddy, rated three to four weeks after treatment; on herbicidal effect rating, SAGPY: meaning of each grade not given here
[1] = system: Monochoria vaginalis, Presl.; assay: Preemergence weed control under flooded paddy conditions, MOOVA (Monochoria); assay type: in vivo; settings: flooded paddy, rated three to four weeks after treatment; on herbicidal effect rating, MOOVA: meaning of each grade not given here
[2] = system: Oryza sativa, (L.) Tebonnet; assay: Rice tolerance to post-transplant applications under flooded paddy conditions (Example 187), ORYSAT (Rice, Tebonnet); settings: rated three to four weeks after treatment; on herbicidal effect rating ORYSAT: meaning of each grade not given here
[3] = system: Echinochloa oryzoides (Ard.) Fritsch.; assay: Preemergence weed control under flooded paddy conditions, ECHORC (Watergrass (Calif.)); assay type: in vivo; settings: flooded paddy, rated three to four weeks after treatment; on herbicidal effect rating, ECHORC: meaning of each grade not given here
Cyperus iria = assay: Preemergence weed control under flooded paddy conditions, CYPIR (Rice Flatsedge); assay type: in vivo; settings: flooded paddy, rated three to four weeks after treatment; on herbicidal effect rating, CYPIR: meaning of each grade not given here
[4] = system: Cyperus serotinus, Rottb.; assay: Preemergence weed control under flooded paddy conditions, CYPSE (Flatsedge); assay type: in vivo; settings: rated three to four weeks after treatment; on herbicidal effect rating, CYPSE: meaning of each grade not given here
[5] = Rate 0.0320 kg/ha, preemergence
[6] = Rate 0.0620 kg/ha, preemergence
[7] = Rate 0.1250 kg/ha, preemergence
[8] = Rate 0.2500 kg/ha, preemergence
[9] = Rate 0.0313 kg/ha, preemergence
[10] = Rate 0.0625 kg/ha, preemergence
[11] = 0.0313 kg/ha, preemergence weeds
[12] = 0.0625 kg/ha, preemergence weeds
[13] = 0.1250 kg/ha, preemergence weeds
[14] = 0.2500 kg/ha, preemergence weeds

For `COC(=O)COc1c(C)cc(C)cc1-c1nsc2ccc(-n3c(=O)cc(C(F)(F)F)n(C)c3=O)cc12` [Example 26, Methyl {{6-{5-[3,6-dihydro-3-methyl-2,6-dioxo-4-(trifluoromethyl)-1(2H)-pyrimidinyl]-1,2-benzisothiazol-3-yl}-2,4-xylyl}oxy}acetate], the “herbicidal effect rating, SAGPY” value (Sagittaria pygmaea, L.; 0.0313 kg/ha, preemergence) was 0.0, the “herbicidal effect rating, SAGPY” value (Sagittaria pygmaea, L.; 0.0625 kg/ha, preemergence) was 0.0 and the “herbicidal effect rating, SAGPY” value (Sagittaria pygmaea, L.; 0.1250 kg/ha, preemergence) was 2.0. The “herbicidal effect rating, SAGPY” value (Sagittaria pygmaea, L.; 0.2500 kg/ha, preemergence) was 9.0, the “herbicidal effect rating, MOOVA” value ([1]; 0.0313 kg/ha, preemergence) was 9.0 and the “herbicidal effect rating, MOOVA” value ([1]; 0.0625 kg/ha, preemergence) was 9.0. For the same molecule, the “herbicidal effect rating, MOOVA” value ([1]; 0.1250 kg/ha, preemergence) was 9.0, the “herbicidal effect rating, MOOVA” value ([1]; 0.2500 kg/ha, preemergence) was 9.0 and the “herbicidal effect rating, ORYSAT (rice tolerance)” value (from here on “herbicidal effect rating, ORYSAT”) ([2]; 0.0313 kg/ha) was 3.0. For the same molecule, the “herbicidal effect rating, ORYSAT” value ([2]; 0.0625 kg/ha) was 4.0, the “herbicidal effect rating, ORYSAT” value ([2]; 0.1250 kg/ha) was 6.0 and the “herbicidal effect rating, ORYSAT” value ([2]; 0.2500 kg/ha) was 9.0. For the same molecule, the “herbicidal effect rating, ECHORC” value ([3]; 0.0313 kg/ha, preemergence) was 7.0, the “herbicidal effect rating, ECHORC” value ([3]; 0.0625 kg/ha, preemergence) was 9.0 and the “herbicidal effect rating, ECHORC” value ([3]; 0.1250 kg/ha, preemergence) was 9.0. For the same molecule, the “herbicidal effect rating, ECHORC” value ([3]; 0.2500 kg/ha, preemergence) was 9.0, the “herbicidal effect rating, CYPIR” value (Cyperus iria; 0.0313 kg/ha, preemergence) was 6.0 and the “herbicidal effect rating, CYPIR” value (Cyperus iria; 0.0625 kg/ha, preemergence) was 8.0. The “herbicidal effect rating, CYPIR” value (Cyperus iria; 0.1250 kg/ha, preemergence) was 9.0, the “herbicidal effect rating, CYPIR” value (Cyperus iria; 0.2500 kg/ha, preemergence) was 9.0 and the “herbicidal effect rating, CYPSE” value ([4]; 0.0313 kg/ha, preemergence) was 0.0. The “herbicidal effect rating, CYPSE” value ([4]; 0.0625 kg/ha, preemergence) was 4.0, the “herbicidal effect rating, CYPSE” value ([4]; 0.1250 kg/ha, preemergence) was 2.0 and the “herbicidal effect rating, CYPSE” value ([4]; 0.2500 kg/ha, preemergence) was 9.0.

`Cn1c(C(F)(F)F)cc(=O)n(-c2ccc3snc(COS(=O)(=O)c4ccccc4)c3c2)c1=O` [Example 382, 2,4(1H,3H)-Pyrimidinedione, 3-[3-(hydroxymethyl)-1,2-benzisothiazol-5-yl]-1-methyl-6-(trifluoromethyl)-, benzenesulfonate (ester)] was tested, and the “herbicidal effect rating, SAGPY” value (Sagittaria pygmaea, L.; [5]) was 3.0, the “herbicidal effect rating, SAGPY” value (Sagittaria pygmaea, L.; [6]) was 4.0 and the “herbicidal effect rating, SAGPY” value (Sagittaria pygmaea, L.; [7]) was 7.0. For the same molecule, the “herbicidal effect rating, SAGPY” value (Sagittaria pygmaea, L.; [8]) was 9.0, the “herbicidal effect rating, MOOVA” value [1, 5] was 9.0 and the “herbicidal effect rating, MOOVA” value [1, 6] was 9.0. The “herbicidal effect rating, MOOVA” value [1, 7] was 9.0, the “herbicidal effect rating, MOOVA” value [1, 8] was 9.0 and the “herbicidal effect rating ORYSAT” value ([2]; Rate 0.0320 kg/ha) was 5.0. For the same molecule, the “herbicidal effect rating ORYSAT” value ([2]; Rate 0.0620 kg/ha) was 6.0, the “herbicidal effect rating ORYSAT” value ([2]; Rate 0.1250 kg/ha) was 6.0 and the “herbicidal effect rating ORYSAT” value ([2]; Rate 0.2500 kg/ha) was 5.0. For the same molecule, the “herbicidal effect rating, ECHORC” value [3, 5] was 0.0, the “herbicidal effect rating, ECHORC” value [3, 6] was 3.0 and the “herbicidal effect rating, ECHORC” value [3, 7] was 4.0. The “herbicidal effect rating, ECHORC” value [3, 8] was 7.0, the “herbicidal effect rating, CYPIR” value (Cyperus iria; [5]) was 5.0 and the “herbicidal effect rating, CYPIR” value (Cyperus iria; [6]) was 6.0. For the same molecule, the “herbicidal effect rating, CYPIR” value (Cyperus iria; [7]) was 7.0, the “herbicidal effect rating, CYPIR” value (Cyperus iria; [8]) was 9.0 and the “herbicidal effect rating, CYPSE” value [4, 5] was 0.0. For the same molecule, the “herbicidal effect rating, CYPSE” value [4, 6] was 0.0, the “herbicidal effect rating, CYPSE” value [4, 7] was 7.0 and the “herbicidal effect rating, CYPSE” value [4, 8] was 7.0.

With `C=CCOc1nc(C(F)(F)F)cc(=O)n1-c1ccc2snc(-c3cc(C)ccc3OC)c2c1` [Example 245, 2-(Allyloxy)-3-[3-(6-methoxy-m-tolyl)-1,2-benzisothiazol-5-yl]-6-(trifluoromethyl)-4(3H)-pyrimidinone] the “SAGPY herbicidal effect rating” value (Sagittaria pygmaea, L.; [9]) was 0.0, the “SAGPY herbicidal effect rating” value (Sagittaria pygmaea, L.; [10]) was 0.0 and the “SAGPY herbicidal effect rating” value (Sagittaria pygmaea, L.; [7]) was 0.0. For the same molecule, the “SAGPY herbicidal effect rating” value (Sagittaria pygmaea, L.; [8]) was 0.0, the “MOOVA herbicidal effect rating” value [1, 9] was 0.0 and the “MOOVA herbicidal effect rating” value [1, 10] was 0.0. For the same molecule, the “MOOVA herbicidal effect rating” value [1, 7] was 0.0, the “MOOVA herbicidal effect rating” value [1, 8] was 0.0 and the “ORYSAT herbicidal effect rating” value ([2]; Rate 0.0313 kg/ha) was 0.0. For the same molecule, the “ORYSAT herbicidal effect rating” value ([2]; Rate 0.0625 kg/ha) was 0.0, the “ORYSAT herbicidal effect rating” value ([2]; Rate 0.1250 kg/ha) was 0.0 and the “ORYSAT herbicidal effect rating” value ([2]; Rate 0.2500 kg/ha) was 0.0. The “ECHORC herbicidal effect rating” value [3, 9] was 0.0, the “ECHORC herbicidal effect rating” value [3, 10] was 0.0 and the “ECHORC herbicidal effect rating” value [3, 7] was 0.0. For the same molecule, the “ECHORC herbicidal effect rating” value [3, 8] was 0.0, the “CYPIR herbicidal effect rating” value (Cyperus iria; [9]) was 0.0 and the “CYPIR herbicidal effect rating” value (Cyperus iria; [10]) was 0.0. For the same molecule, the “CYPIR herbicidal effect rating” value (Cyperus iria; [7]) was 0.0, the “CYPIR herbicidal effect rating” value (Cyperus iria; [8]) was 0.0 and the “CYPSE herbicidal effect rating” value [4, 9] was 0.0. The “CYPSE herbicidal effect rating” value [4, 10] was 0.0, the “CYPSE herbicidal effect rating” value [4, 7] was 0.0 and the “CYPSE herbicidal effect rating” value [4, 8] was 0.0.

For `Cn1c(C(F)(F)F)cc(=O)n(-c2ccc3snc(C(Cl)Cl)c3c2)c1=O` [Example 114, 3-[3-(Dichloromethyl)-1,2-benzisothiazol-5-yl]-1-methyl-6-(trifluoromethyl)-2,4(1H,3H)-pyrimidinedione], the “herbicidal effect rating, SAGPY” value (Sagittaria pygmaea, L.; [11]) was 0.0, the “herbicidal effect rating, SAGPY” value (Sagittaria pygmaea, L.; [12]) was 2.0 and the “herbicidal effect rating, SAGPY” value (Sagittaria pygmaea, L.; [13]) was 6.0. The “herbicidal effect rating, SAGPY” value (Sagittaria pygmaea, L.; [14]) was 6.0, the “herbicidal effect rating, MOOVA” value [1, 11] was 9.0 and the “herbicidal effect rating, MOOVA” value [1, 12] was 9.0. The “herbicidal effect rating, MOOVA” value [1, 13] was 9.0, the “herbicidal effect rating, MOOVA” value [1, 14] was 8.0 and the “herbicidal effect rating, ORYSAT” value ([2]; 0.0313 kg/ha) was 4.0. For the same molecule, the “herbicidal effect rating, ORYSAT” value ([2]; 0.0625 kg/ha) was 6.0, the “herbicidal effect rating, ORYSAT” value ([2]; 0.1250 kg/ha) was 7.0 and the “herbicidal effect rating, ORYSAT” value ([2]; 0.2500 kg/ha) was 7.0. For the same molecule, the “herbicidal effect rating, ECHORC” value [3, 11] was 0.0, the “herbicidal effect rating, ECHORC” value [3, 12] was 0.0 and the “herbicidal effect rating, ECHORC” value [3, 13] was 4.0. For the same molecule, the “herbicidal effect rating, ECHORC” value [3, 14] was 6.0, the “herbicidal effect rating, CYPIR” value (Cyperus iria; [11]) was 9.0 and the “herbicidal effect rating, CYPIR” value (Cyperus iria; [12]) was 9.0. The “herbicidal effect rating, CYPIR” value (Cyperus iria; [13]) was 9.0, the “herbicidal effect rating, CYPIR” value (Cyperus iria; [14]) was 9.0 and the “herbicidal effect rating, CYPSE” value [4, 11] was 0.0. The “herbicidal effect rating, CYPSE” value [4, 12] was 0.0, the “herbicidal effect rating, CYPSE” value [4, 13] was 2.0 and the “herbicidal effect rating, CYPSE” value [4, 14] was 6.0.

For `CSCOCc1nsc2ccc(-n3c(=O)cc(C(F)(F)F)n(C)c3=O)cc12` [Example 484, 2,4(1H,3H)-Pyrimidinedione, 1-methyl-3-{3-{[(methylthio)methoxy]methyl}-1,2-benzisothiazol-5-yl}-6-(trifluoromethyl)-], the SAGPY herbicidal rating (Sagittaria pygmaea, L.; 0.0320 kg/ha, preemergence) was 5.0, the MOOVA herbicidal rating ([1]; 0.0320 kg/ha, preemergence) was 7.0 and the MOOVA herbicidal rating ([1]; 0.0620 kg/ha, preemergence) was 9.0. For the same molecule, the MOOVA herbicidal rating ([1]; 0.1250 kg/ha, preemergence) was 9.0, the MOOVA herbicidal rating ([1]; 0.2500 kg/ha, preemergence) was 9.0 and the “ORYSAT herbicidal rating (rice tolerance)” value (“ORYSAT herbicidal rating” for short) ([2]; 0.0320 kg/ha) was 5.0. The “ORYSAT herbicidal rating” value ([2]; 0.0620 kg/ha) was 5.0, the “ORYSAT herbicidal rating” value ([2]; 0.1250 kg/ha) was 6.0 and the “ORYSAT herbicidal rating” value ([2]; 0.2500 kg/ha) was 6.0. The ECHORC herbicidal rating ([3]; 0.0320 kg/ha, preemergence) was 5.0, the ECHORC herbicidal rating ([3]; 0.0620 kg/ha, preemergence) was 4.0 and the ECHORC herbicidal rating ([3]; 0.1250 kg/ha, preemergence) was 7.0. It also gave an ECHORC herbicidal rating ([3]; 0.2500 kg/ha, preemergence) of 9.0, a CYPIR herbicidal rating (Cyperus iria; 0.0320 kg/ha, preemergence) of 4.0 and a CYPIR herbicidal rating (Cyperus iria; 0.0620 kg/ha, preemergence) of 4.0. It also gave a CYPIR herbicidal rating (Cyperus iria; 0.1250 kg/ha, preemergence) of 6.0, a CYPIR herbicidal rating (Cyperus iria; 0.2500 kg/ha, preemergence) of 9.0 and a CYPSE herbicidal rating ([4]; 0.0320 kg/ha, preemergence) of 0.0.
